# Where two headings read alike, the source gives them in different places. Marks after values point to notes of the source that are not given here.
# Assays:
# HeLa = details: read-out: HeLa CC50; HeLa cells
# hRV2 [1] = assay: Multicycle CPE reduction antiviral assay, hRV2 in HeLa cells; assay type: cell-based, human rhinovirus 2; details: 3 days
# hRV14 [2] = assay: Multicycle CPE reduction antiviral assay, hRV14 in HeLa cells; assay type: cell-based, human rhinovirus 14; details: 3 days
# ZIKV = assay: Direct yield reduction assay (DYRA), ZIKV in Huh7 cells; assay type: cell-based, Zika virus; details: for IC50: Zika virus, read-out: ZIKV Huh7 IC50
# [3] = Cytotoxicity assay (CellTiter-Glo 2.0) in Huh7 cells; details: human
# [4] = Cytotoxicity assay (CellTiter-Glo 2.0) in Calu-3 cells; assay type: cell-based; details: human, half-maximal cytotoxic concentration, read-out: SARS-CoV-2 Calu-3 CC50
# in vitro [5] = assay type: in vitro ADME; details: PAMPA, pH 7.4; for Membrane Retention (% MR): 5 h, 500 μM
# Experimental: (§1) appropriate calibration curve. For each compound, the determination was performed in three […]
# (§2) Parallel Artificial Membrane Permeability Assay (PAMPA)
# (§3) Each ‘donor solution’ was prepared from a solution of each compound (DMSO, 1 mM) diluted with 25 mM Phosphate Buffered Saline (PBS) at pH 7.4, up to a final concentration of 500 μM. The donor wells were filled with 150 µL of ‘donor solution’. The filters were coated with 5 μL of a solution of phosphatidylcholine in dodecane 1% (w/v) and the lower wells filled with 300 µL of ‘acceptor solution’ (50% v/v DMSO and PBS). The sandwich plate was assembled and incubated for 5 hours at room temperature under gentle shaking. At the end of the incubation time, the sandwich was disassembled and the amount of compound in the donor and acceptor wells was measured by LC-UV-MS. For each compound, the determination was performed in three independent experiments.
# Apparent permeability (Papp) and membrane retention (%MR) were calculated according to the equations reported in reference. […]
# hRV2 [6] = tested on: hRV2; design: method as in PMID 31729878; details: HeLa cells; cited from earlier work
# Enterovirus-A71 (EV-A71) = tested on: Enterovirus-A71 (EV-A71); design: method as in PMID 28122178, PMID 31729878; details: at low micromolar concentration; cited from earlier work
# hRV14 [7] = tested on: hRV14; design: method as in PMID 31729878; details: HeLa cells; cited from earlier work
# [8] = C57BL/6 mice, up to 180 mg/kg; cited from earlier work
# coxsackievirus B3 (CVB3) = tested on: coxsackievirus B3 (CVB3); design: method as in PMID 28122178, PMID 31729878; details: at low micromolar concentration; cited from earlier work
# PI4KIIIβ = target: T1, PI4KIIIβ (Homo sapiens, UniProt Q9UBF8); assay: In vitro kinase inhibition assay, PI4KIIIβ; assay type: biochemical; details: mean of at least three independent experiments; 20 μM ATP
# T1 construct: Recombinant full length, HIS6 -tagged PI4KIIIβ was purchased from ProQinase; His6; purchased ProQinase (Germany)
# [9] = PAMPA; cited from earlier work
# in vitro [10] = details: human
# [11] = Stability in medium/serum solution; assay type: in vitro ADME; details: EMEM, 2 mM L-glut, 1 % FBS, 1 % Pen/Strep, 37 °C
# SARS-CoV-2 [12] = assay: microbe, parasite or virus in culture; assay type: cell-based; details: for IC50: read-out: SARS-CoV-2 Calu-3 IC50 (DYRA protocol)
# in vitro [13] = details: human; remark: listed apart in the source
# [14] = Stability in medium/serum solution; assay type: in vitro ADME; details: EMEM, 2 mM L-glut, 1 % FBS, 1 % Pen/Strep, 37 °C; remark: listed apart in the source
# Experimental: as §1, §2, §3
# Apparent permeability (Papp) and membrane retention (%MR) were calculated according to the equations reported in reference.
# (§4) Stability in Human Plasma
# (§5) Pooled human plasma (1.5 mL, […]), PBS (1.4 mL, pH 7.4, 25 mM) and tested compound dissolved in DMSO (100 µL, 3.0 mM) were mixed in a test tube that was incubated at 37 […]
# mixed with 600 µL of cold acetonitrile and centrifuged at 5000 rpm for 15 min [3]. The supernatant was removed and analyzed by LC-UV-MS. For each compound, the determination was performed in three independent experiments.
# Stability in Medium/Serum solution
# The stability of compounds under the experimental conditions used in the ENTRY-DYRA antiviral assay was evaluated. Each tested compound dissolved din DMSO (1.0 mL, 400 µM) was mixed in a test tube with EMEM, 2 mM L-glut, 1% FBS, 1% Pen/Strep solution (final concentration of the compound of 200 µM) and then incubated at 37 °C. At set time points (0.0, 0.08, 0.25, 0.50, 1.0, 3.0, and 24.0 h), samples of 100 µL were taken, mixed with 400 µL of cold acetonitrile and centrifuged at 5000 rpm for 15 min. The supernatant was removed and analyzed by UV/LC-MS. For each compound, the determination was performed in three independent experiments.
# SARS-CoV-2 [15] = assay: ENTRY-DYRA (entry inhibitor protocol), SARS-CoV-2 in Calu-3 cells; assay type: cell-based
# [16] = pH 7.4; cited from earlier work
# in vitro [17] = details: human; remark: listed apart in the source
# in vitro [18] = details: human; remark: listed apart in the source
# [19] = assay type: in vitro ADME; details: human, 24 h, 100 µM, pH 7.4
# Experimental: appropriate calibration curve. […]
# as §4, §5
# mixed with 600 µL of cold acetonitrile and centrifuged at 5000 rpm for 15 min [3]. The supernatant was removed and analyzed by LC-UV-MS. For each compound, the determination was performed in three independent experiments. […]
# physchem = assay type: physicochemical; details: pH 7.4, aqueous buffer
# [20] = Severe acute respiratory syndrome coronavirus 2, Calu-3 cells, 72 h incubation, ±SD, NA: Not active
# [21] = Calu-3 cells treated 1 h before infection, compound and virus removed, 72 h incubation
# [22] = Severe acute respiratory syndrome coronavirus 2, Calu-3, 72 h
# T1 sequence (Q9UBF8 whole entry): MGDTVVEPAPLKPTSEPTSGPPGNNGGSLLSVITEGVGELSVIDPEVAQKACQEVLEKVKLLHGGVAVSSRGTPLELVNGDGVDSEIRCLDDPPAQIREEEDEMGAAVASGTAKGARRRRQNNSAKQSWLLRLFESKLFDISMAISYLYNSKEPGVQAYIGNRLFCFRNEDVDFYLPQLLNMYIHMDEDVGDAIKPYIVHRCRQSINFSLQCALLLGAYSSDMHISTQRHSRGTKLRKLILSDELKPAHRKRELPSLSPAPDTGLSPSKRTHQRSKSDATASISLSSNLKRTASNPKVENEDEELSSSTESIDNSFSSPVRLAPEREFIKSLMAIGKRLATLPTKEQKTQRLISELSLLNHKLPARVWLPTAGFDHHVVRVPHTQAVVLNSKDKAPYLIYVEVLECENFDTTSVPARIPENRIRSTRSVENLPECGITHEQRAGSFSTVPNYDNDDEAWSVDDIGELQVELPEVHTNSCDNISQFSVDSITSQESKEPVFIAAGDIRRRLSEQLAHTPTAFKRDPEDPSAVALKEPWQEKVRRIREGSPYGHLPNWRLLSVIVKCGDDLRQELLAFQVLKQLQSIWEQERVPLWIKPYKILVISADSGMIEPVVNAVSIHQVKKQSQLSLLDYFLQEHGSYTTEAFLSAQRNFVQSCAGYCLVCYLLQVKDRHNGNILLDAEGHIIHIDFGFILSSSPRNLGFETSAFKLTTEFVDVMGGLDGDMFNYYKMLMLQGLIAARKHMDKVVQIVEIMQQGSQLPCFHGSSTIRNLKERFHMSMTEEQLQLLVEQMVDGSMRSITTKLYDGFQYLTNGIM
SMILES,"IC50 (ZIKV; Huh-7, Huh7 cells, DYRA, 72 h) [µM]",CC50 [4] [µM],Membrane Retention (% MR) (in vitro [5]) [%],IC50 (PI4KIIIβ) [µM],CC50 (in vitro [10]) [µM],Stability in Medium/Serum 48 h [11] [%],IC50 (SARS-CoV-2 [12]; [20]) [µM],CC50 at 3 days (in vitro [13]) [µM],Stability in Medium/Serum 24 h [14] [%],"viability at 4 h, 50 µM (in vitro [17]) [%]","Papp at 5 h, 500 μM (in vitro [5]) [×10⁻⁶ cm/s]","IC50 (hRV2 [1]; Rhinovirus A, HRV2, 72 h) [µM]",Plasma Stability [19] [%],"IC50 (hRV14 [2]; Rhinovirus B, HRV14, 72 h) [µM]",solubility (physchem) [µg/mL],also measured
"Cc1nc2c(NCc3cccc(S(C)(=O)=O)c3)nccn2c1-c1ccc(O)c(F)c1 [BF738735, reference compound]",–,–,–,–,–,–,–,–,–,–,–,–,–,–,–,CC50 (HeLa): > 30 µM; IC50 (hRV2 [1]): 0.39 ± 0.36 µM; IC50 (hRV14 [2]): 0.59 ± 0.28 µM
"CC(C)OC(=O)[C@H](C)N[P@](=O)(OC[C@H]1O[C@@H](n2ccc(=O)[nH]c2=O)[C@](C)(F)[C@@H]1O)Oc1ccccc1 [SOF, Sofosbuivir, reference compound]",–,–,–,–,–,–,–,–,–,–,–,–,–,–,–,"IC50 (ZIKV; Huh-7, 72 h): 2.7 ± 0.5 µM; CC50 [3]: 200 µM"
CC(=O)c1cccc(N(CCO)c2nc(-c3sc(NC(=O)C(C)(C)C)nc3C)cs2)c1 [compound 2],1 ± 0.1,40,< 0.1,2.1 ± 0.17,16,90.4,3.95 ± 1.48,17,98.5,94.5,–,–,–,–,–,"IC50 (hRV2 [6]): 6.1 µM; inhibition of EV-A71 replication in infected cells (Enterovirus-A71 (EV-A71)): inhibited; IC50 (hRV14 [7]): > 9.1 µM; tolerability, acute toxicity and histological alterations in key biodistribution organs [8]: well tolerated; inhibition of CVB3 replication in infected cells (coxsackievirus B3 (CVB3)): inhibited; Papp [9]: 1,1 10^−6 cm/sec; SARS-CoV-2 Calu-3 IC50 (ENTRY-DYRA conditions, in parenthesis) (SARS-CoV-2 [15]; [21]): no effect on the entry phase; Aqueous Solubility [16]: 0.05* μg/mL"
"CN(C)C(=O)COC(=O)Cc1ccc(OC(=O)c2ccc(NC(=N)N)cc2)cc1 [CMT, Camostat, reference compound]",–,200,–,–,–,–,–,–,–,–,–,–,–,–,–,"IC50 (SARS-CoV-2 [12]; [22]): 0.82 ± 0.32 µM; IC50 (SARS-CoV-2 [15]; Severe acute respiratory syndrome coronavirus 2, Calu-3, read-out: SARS-CoV-2 Calu-3 IC50 (ENTRY-DYRA conditions, in parenthesis)): 0.04 µM"
Cc1nc(NC(=O)C(C)(C)C)sc1-c1csc(N(CC(C)(C)O)C2CCCCC2)n1 [4 d],0.51 ± 0.05,17,18.05,1.97 ± 0.79,4,85.7,1.57 ± 0.38,23.8 ± 1.7,93.3,94.8,11.7,0.9 ± 0.72,92.4,1.4 ± 1.2,0.01,"selectivity index (SI) against ZIKV (ZIKV; ratio between CC50 and IC50, Huh7): 8; viability (in vitro [18]): > 95%; selectivity index (SI) against SARS-CoV-2 under DYRA conditions (SARS-CoV-2 [12]; ratio between CC50 and IC50, Calu-3): 11; IC50 (SARS-CoV-2 [15]; Severe acute respiratory syndrome coronavirus 2, Calu-3 cells treated 1 h before infection, compound and virus removed, 72 h incubation, read-out: SARS-CoV-2 Calu-3 IC50 (ENTRY-DYRA conditions, in parenthesis) (converted)): 0.37 µM"
"CCC(CC)COC(=O)[C@H](C)N[P@](=O)(OC[C@H]1O[C@@](C#N)(c2ccc3c(N)ncnn23)[C@H](O)[C@@H]1O)Oc1ccccc1 [RMD, Remdesivir, reference compound]",–,97,–,–,–,–,0.11 ± 0.04,–,–,–,–,–,–,–,–,–
Cc1nc(NC(=O)C(C)(C)C)sc1-c1csc(NCC(C)(C)O)n1 [4 c],0.83 ± 0.31,> 100,< 0.1,0.89 ± 0.2,37,67.3,–,> 30,77,98.3,0.323,0.39 ± 0.01,92.3,0.48 ± 0.14,0.32,–
Cc1nc(NC(=O)C(C)(C)C)sc1-c1csc(N(CCO)CCO)n1 [4 b],5 ± 1.2,> 100,0.94,0.24 ± 0.05,125,84.9,–,> 30,91.4,92.6,0.021,1.37 ± 1.31,90.2,2.07 ± 1.45,0.28,–
Cc1nc(NC(=O)C(C)(C)C)sc1-c1csc(NCC(O)CO)n1 (stereo not shown) [4 a],46.5 ± 2.96,> 100,< 0.1,0.29 ± 0.08,> 200,97.5,–,> 30,99.0,96,0.008,1.77 ± 0.62,99.4,2.32 ± 1.54,5.26,–
Cc1nc(NC(=O)C(C)(C)C)sc1-c1csc(Nc2cccc(C(=O)O)c2)n1 [compound 1],–,45,< 0.1,–,110,93.1,–,36,96.4,94.1,0.052,–,99.1,–,0.21,"IC50 (ZIKV; Huh-7, 72 h): 13.8 ± 4.08 µM; IC50 (hRV2 [6]): 9.7 µM; inhibition of EV-A71 replication in infected cells (Enterovirus-A71 (EV-A71)): inhibited; IC50 (hRV14 [7]): 15.3 µM; inhibition of CVB3 replication in infected cells (coxsackievirus B3 (CVB3)): inhibited; IC50 (SARS-CoV-2 [12]; [22]): 7.45 ± 2.47 µM; SARS-CoV-2 Calu-3 IC50 (ENTRY-DYRA conditions, in parenthesis) (SARS-CoV-2 [15]; [21]): no effect on the entry phase"

# Reference: PMC8427023, “Bithiazole Inhibitors of Phosphatidylinositol 4‐Kinase (PI4KIIIβ) as Broad‐Spectrum Antivirals Blocking the Replication of SARS‐CoV‐2, Zika Virus, and Human Rhinoviruses” (Chemmedchem, 2021)
